From US20110269811A1, “INHIBITORS OF SEMICARBAZIDE-SENSITIVE AMINE OXIDASE (SSAO) AND VAP-1 MEDIATED ADHESION USEFUL FOR TREATMENT AND PREVENTION OF DISEASES” (priority 2006, published 2011)
Structures can show the parent of a compound that is named as a salt. Where two headings read alike, the source gives them in different places.

How the values were obtained:
human MAO-B = target: T1, human MAO-B (Homo sapiens, UniProt P27338); assay: MAO-B activity, colorimetric method, benzylamine substrate; format: biochemical; details: for Specificity of SSAO on MAO-B: ratio of IC50 for MAO-B to IC50 for SSAO; for IC50: recombinant human MAO-B
T1 construct: purchased BD Biosciences (MA, USA)
T1 sequence (P27338 1-520): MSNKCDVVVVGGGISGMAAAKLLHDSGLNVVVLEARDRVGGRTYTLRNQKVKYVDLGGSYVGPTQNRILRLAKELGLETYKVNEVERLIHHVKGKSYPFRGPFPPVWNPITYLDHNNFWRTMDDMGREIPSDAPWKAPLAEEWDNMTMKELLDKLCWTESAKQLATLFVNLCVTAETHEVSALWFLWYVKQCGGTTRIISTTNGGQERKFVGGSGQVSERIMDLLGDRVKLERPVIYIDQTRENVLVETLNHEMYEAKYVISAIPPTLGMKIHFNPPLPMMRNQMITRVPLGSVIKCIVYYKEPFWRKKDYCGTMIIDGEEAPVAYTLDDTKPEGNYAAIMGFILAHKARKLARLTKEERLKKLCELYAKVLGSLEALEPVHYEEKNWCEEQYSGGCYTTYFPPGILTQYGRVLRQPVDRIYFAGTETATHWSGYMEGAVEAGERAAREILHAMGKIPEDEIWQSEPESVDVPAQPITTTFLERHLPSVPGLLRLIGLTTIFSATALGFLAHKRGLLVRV
Protocol: The specificities of the different SSAO inhibitors was tested by determining their abilities to inhibit MAO-A and MAO-B activities in vitro. Recombinant human MAO-A and human MAO-B enzymes were obtained from BD Biosciences (MA, USA). MAO activity was measured using the colorimetric method essentially as described (Holt, A. et al. (1997) Anal. Biochem. 244: 384). A pre-determined amount of inhibitor diluted in 0.2M potassium phosphate buffer, pH 7.6, was added to each well, if required. […] Controls lacked inhibitor. The following agents were then added to a final reaction volume of 200 μL in 0.2M potassium phosphate buffer, pH 7.6: 0.04 mg/ml of MAO-A or 0.07 mg/ml MAO-B enzyme, 15 μL of 10 mM tyramine substrate (for MAO-A), or 15 μL 100 mM benzylamine substrate (for MAO-B), and 50 μL of freshly made chromogenic solution. The chromogenic solution contained 750 μM vanillic acid (Sigma#V-2250), 400 μM 4-aminoantipyrine (Sigma #A-4328) and 12 U/mL horseradish peroxidase (Sigma #P-8250) in order to cause a change of 0.5 OD A490 nm/h. […] The plates were incubated for 60 min at 37° C. The increase in absorbance, reflecting MAO activity, was measured at 490 nm using microplate spectrophotometer (Power Wave 40, Bio-Tek Inst.). Inhibition was presented as percent inhibition compared to control after correcting for background absorbance and IC50 values calculated using GraphPad Prism software. Clorgyline and pargyline (inhibitors of MAO-A and -B, respectively) at 1 μM, were added to some wells as positive controls for MAO inhibition.

Human SSAO = target: T2, Human SSAO (Homo sapiens, UniProt Q16853); assay: In vitro inhibition of SSAO activity, human umbilical cord homogenate, 14C-benzylamine; format: biochemical
T2 construct: rat lung or human umbilical cord homogenates were prepared by chopping the freshly removed tissue; from tissue; host or cells: human umbilical cord homogenate (25,000 g supernatant)
T2 sequence (Q16853 1-763): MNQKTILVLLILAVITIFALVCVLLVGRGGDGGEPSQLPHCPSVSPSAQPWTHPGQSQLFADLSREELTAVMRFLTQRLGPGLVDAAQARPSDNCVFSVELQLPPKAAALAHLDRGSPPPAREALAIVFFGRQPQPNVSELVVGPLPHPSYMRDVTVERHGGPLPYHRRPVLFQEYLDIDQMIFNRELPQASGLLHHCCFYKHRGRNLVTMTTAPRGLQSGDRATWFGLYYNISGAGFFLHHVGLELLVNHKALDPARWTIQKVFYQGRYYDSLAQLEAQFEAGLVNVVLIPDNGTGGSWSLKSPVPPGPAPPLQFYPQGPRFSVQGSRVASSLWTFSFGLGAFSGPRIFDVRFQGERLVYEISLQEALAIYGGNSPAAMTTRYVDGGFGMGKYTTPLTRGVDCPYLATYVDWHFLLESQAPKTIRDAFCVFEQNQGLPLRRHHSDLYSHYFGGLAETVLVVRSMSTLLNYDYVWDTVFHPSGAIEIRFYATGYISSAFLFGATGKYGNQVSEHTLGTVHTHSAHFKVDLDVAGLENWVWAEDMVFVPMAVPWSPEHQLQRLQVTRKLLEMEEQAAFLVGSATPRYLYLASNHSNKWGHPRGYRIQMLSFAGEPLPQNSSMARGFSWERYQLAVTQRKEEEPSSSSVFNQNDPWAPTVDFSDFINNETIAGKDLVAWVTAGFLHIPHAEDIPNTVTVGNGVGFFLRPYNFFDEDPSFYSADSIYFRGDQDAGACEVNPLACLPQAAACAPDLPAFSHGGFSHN
Protocol: SSAO activity was measured as described (Lizcano J M. Et al. (1998) Biochem J. 331:69). Briefly, rat lung or human umbilical cord homogenates were prepared by chopping the freshly removed tissue into small pieces and washing them thoroughly in PBS. The tissue was then homogenized 1:10 (w/v) for lung or 1:5 (w/v) for umbilical cord, in 10 mM potassium phosphate buffer (pH 7.8). Homogenates were then centrifuged at 1000 g at 4° C. for 10 min (lung) or 25,000 g for 30 min (umbilical cord); the supernatants were kept frozen until ready to use. Lung or umbilical cord homogenate was preincubated with clorgyline and pargyline at 1 μM to inhibit MAO-A and -B activity, respectively, and SSAO inhibitors were generally present at 1 nM-10 μM. The reaction was initiated by addition of 20 μM ^14C— benzylamine as substrate. The reaction was carried out at 37° C. in a final volume of 400 μL of 100 mM potassium phosphate buffer (pH 7.2) and stopped with 100 μl of 2M citric acid. Radioactively labeled products were extracted into toluene/ethyl acetate (1:1, v/v) containing 0.6% (w/v) 2,5-diphenyloxazole (PPO) before liquid scintillation counting.

[1] = human umbilical cord homogenate, read-out: Human SSAO IC50

For COc1ccc(C/C(=C/F)CN)cc1.Cl [Compound I-1-Z, (Z)-3-Fluoro-2-(4-methoxybenzyl)-allylamine hydrochloride], the “Specificity of SSAO on MAO-B” value (human MAO-B) was 88, the IC50 (human MAO-B) was 1.6 µM and the IC50 (Human SSAO; as restated in Example 46, read-out: IC50 for human SSAO) was 0.018 µM.
With CCOc1ccc(C/C(=C\F)CN)cc1.Cl [Compound I-2-E, (E)-3-Fluoro-2-(4-ethoxybenzyl)-allylamine hydrochloride] the “Specificity of SSAO on MAO-B” value (human MAO-B) was 189, the IC50 (human MAO-B) was 1.7 µM and the melting point was 167 to 168 °C. For the same compound, the IC50 (Human SSAO; [1]) was 0.009 µM.
With CCOc1ccc(C/C(=C/F)CN)cc1.Cl [Compound I-2-Z, (Z)-3-Fluoro-2-(4-ethoxybenzyl)-allylamine hydrochloride] the “Specificity of SSAO on MAO-B” value (human MAO-B) was 1200, the IC50 (human MAO-B) was 12 µM and the melting point was 153 to 154 °C. It also gave an IC50 (Human SSAO; [1]) of 0.01 µM.
For Cl.NC/C(=C\F)Cc1ccc(Cl)cc1 [Compound I-3-Z, (Z)-2-(4-Chlorobenzyl)-3-fluoro-allylamine hydrochloride], the “Specificity of SSAO on MAO-B” value (human MAO-B) was 3, the IC50 (human MAO-B) was 0.084 µM and the melting point was 145 to 146 °C. It also gave an IC50 (Human SSAO; [1]) of 0.028 µM.
For COc1cccc(C/C(=C/F)CN)c1.Cl [Compound I-5-Z, (Z)-3-Fluoro-2-(3-methoxybenzyl)allylamine hydrochloride], the “Specificity of SSAO on MAO-B” value (human MAO-B) was 64.3, the IC50 (human MAO-B) was 1.8 µM and the melting point was 119 to 120.5 °C. It also gave an IC50 (Human SSAO; [1]) of 0.028 µM.
With CC(C)Oc1ccc(C/C(=C\F)CN)cc1 [Compound I-8-E, (E)-3-Fluoro-2-(4-isopropoxybenzyl)allylamine hydrochloride] the “Specificity of SSAO on MAO-B” value (human MAO-B) was 3070, the IC50 (human MAO-B) was 35 µM and the IC50 (Human SSAO; [1]) was 0.0114 µM.
For CC(C)Oc1ccc(C/C(=C/F)CN)cc1.Cl [Compound I-8-Z, (Z)-3-Fluoro-2-(4-isopropoxybenzyl)allylamine hydrochloride], the “Specificity of SSAO on MAO-B” value (human MAO-B) was 5400, the IC50 (human MAO-B) was 27 µM and the melting point was 147 to 148 °C. The IC50 (Human SSAO; [1]) was 0.005 µM.
For CSc1ccc(C/C(=C/F)CN)cc1.Cl [Compound I-9-Z, (Z)-3-Fluoro-2-(4-methylthiobenzyl)allylamine hydrochloride], the “Specificity of SSAO on MAO-B” value (human MAO-B) was 200, the IC50 (human MAO-B) was 2.4 µM and the melting point was 144 to 146 °C. It also gave an IC50 (Human SSAO; [1]) of 0.012 µM.
With CC(C)c1ccc(C/C(=C\F)CN)cc1.Cl [Compound I-14-E, (E)-3-Fluoro-2-(4-isopropylbenzyl)allylamine hydrochloride] the “Specificity of SSAO on MAO-B” value (human MAO-B) was 2.54, the IC50 (human MAO-B) was 0.033 µM and the melting point was 175 to 176 °C. It also gave an IC50 (Human SSAO; [1]) of 0.013 µM.
In the case of CC(C)c1ccc(C/C(=C/F)CN)cc1.Cl [Compound I-14-Z, (Z)-3-Fluoro-2-(4-isopropylbenzyl)allylamine hydrochloride], the “Specificity of SSAO on MAO-B” value (human MAO-B) is reported as 1250, the IC50 (human MAO-B) is reported as 9.6 µM and the melting point is reported as 175 to 176 °C. It also gave an IC50 (Human SSAO; [1]) of 0.008 µM.
In the case of CC(C)(C)c1ccc(C/C(=C/F)CN)cc1.Cl [Compound I-15-Z, (Z)-3-Fluoro-2-(4-tert-butylbenzyl)allylamine hydrochloride], the “Specificity of SSAO on MAO-B” value (human MAO-B) is reported as 5429, the IC50 (human MAO-B) is reported as 38 µM and the melting point is reported as 155 to 156 °C. It also gave an IC50 (Human SSAO; [1]) of 0.007 µM.
For Cl.NC/C(=C\F)Cc1cccc(F)c1 [Compound I-19-Z, (Z)-3-Fluoro-2-(3-fluorobenzyl)allylamine hydrochloride], the “Specificity of SSAO on MAO-B” value (human MAO-B) was 27.6, the IC50 (human MAO-B) was 0.69 µM and the melting point was 120.5 to 121.5 °C. The IC50 (Human SSAO; [1]) was 0.025 µM.
In the case of NC/C(=C\Cl)CCc1cc(F)cc(C(F)(F)F)c1.O=C(O)C(F)(F)F [Compound I-40-Z, (Z)-3-Chloro-2-(3-fluoro-5-trifluoromethylphenylethyl)allylamine trifluoroacetate], the “Specificity of SSAO on MAO-B” value (human MAO-B) is reported as 185, the IC50 (human MAO-B) is reported as 170 µM and the melting point is reported as 51 to 52 °C. It also gave an IC50 (Human SSAO; [1]) of 0.92 µM.
In the case of COc1ccc(CC/C(=C\Cl)CN)cc1.Cl [Compound I-44-Z, (E)-3-Chloro-2-(4-methoxyphenylethyl)allylamine hydrochloride], the “Specificity of SSAO on MAO-B” value (human MAO-B) is reported as 22, the IC50 (human MAO-B) is reported as 16 µM and the melting point is reported as 138 °C (dec.). The IC50 (Human SSAO; [1]) was 0.72 µM.
With CCOc1ccc(CC/C(=C\Cl)CN)cc1.Cl [Compound I-45-Z, (E)-3-Chloro-2-(4-ethoxyphenylethyl)allylamine hydrochloride] the “Specificity of SSAO on MAO-B” value (human MAO-B) was 8.6, the IC50 (human MAO-B) was 1.2 µM and the melting point was 104 to 106 °C. The IC50 (Human SSAO; [1]) was 0.14 µM.
In the case of CCCCOc1ccc(CC/C(=C\Cl)CN)cc1.Cl [Compound I-47-E, (E)-3-Chloro-2-(4-n-butoxyphenylethyl)allylamine hydrochloride], the “Specificity of SSAO on MAO-B” value (human MAO-B) is reported as 2.5, the IC50 (human MAO-B) is reported as 0.42 µM and the melting point is reported as 132 to 133 °C. It also gave an IC50 (Human SSAO; [1]) of 0.17 µM.
With NC/C(=C\F)CCc1ccc(F)cc1 [Compound I-99-Z, (Z)-2-(fluoromethylene)-4-(4-fluorophenyl)butan-1-amine] the “Specificity of SSAO on MAO-B” value (human MAO-B) was 2.1, the IC50 (human MAO-B) was 0.27 µM and the IC50 (Human SSAO; [1]) was 0.13 µM.
In the case of COc1ccc(CC/C(=C/F)CN)cc1.Cl [Compound I-102-Z, (Z)-3-Fluoro-2-[2-(4-methoxyphenyl)-ethyl]-allylamine hydrochloride], the “Specificity of SSAO on MAO-B” value (human MAO-B) is reported as 19, the IC50 (human MAO-B) is reported as 0.56 µM and the melting point is reported as 94 to 95 °C. It also gave an IC50 (Human SSAO; [1]) of 0.03 µM.
With NC/C(F)=C\Cc1cc(F)cc(C(F)(F)F)c1 [II-1-E, (E)-2-Fluoro-4-(3-fluoro-5-trifluoromethylphenyl)-but-2-enylamine] the “Specificity of SSAO on MAO-B” value (human MAO-B) was over 2400, the IC50 (human MAO-B) was over 87 µM and the IC50 (Human SSAO; [1]) was 0.036 µM.
With CN(C)c1cccc(C/C=C(/F)CN)c1.Cl [II-11-E, (E)-2-Fluoro-4-(3-dimethylaminophenyl)-2-butenylamine hydrochloride] the “Specificity of SSAO on MAO-B” value (human MAO-B) was 7272 and the IC50 (Human SSAO; [1]) was 0.11 µM.
With COc1cccc(C/C(C)=C(/F)CN)c1 [II-18-E, hydrochloride] the “Specificity of SSAO on MAO-B” value (human MAO-B) was over 3448, the IC50 (human MAO-B) was over 1000 µM and the IC50 (Human SSAO; [1]) was 0.29 µM.
In the case of COc1cccc(OC/C=C(/F)CN)c1 [II-19-E, (E)-2-fluoro-4-(3-methoxyphenoxy)but-2-en-1-amine], the “Specificity of SSAO on MAO-B” value (human MAO-B) is reported as 5312, the IC50 (human MAO-B) is reported as 850 µM and the IC50 (Human SSAO; [1]) is reported as 0.16 µM.
